Reference: patent publication US20240269292A1
Entries after “also recorded” stand apart in the source; their conditions may differ. Non-standard residues stand in square brackets, D forms with d. Residues, ends and D or L forms follow the SMILES beside them. *: point of attachment. Dmt = Cc1cc(O)cc(C)c1C[C@H](N)C(=O)O; X1 = CCCCCCCCCCCCCCCCCCO*

What was measured:
[1] = Accelerated in vitro release assay, methyl laurate dispersal medium; format: physicochemical
Source text: In all cases, all EY005 was rapidly released, in some cases within hours, and in all cases by day 3.

[2] = tested on: retinal pigment epithelium (RPE) cells; assay: Actin cytoskeleton disorganization (phalloidin) in HQ-exposed RPE cells; format: cell-based; settings: 5 μM
Experimental: (§1) Cells are then treated with drug (or control phosphate-buffered saline (PBS) solution) and assayed for effects on mitochondrial dysfunction and other cellular changes.
(§2) Mitochondrial dysfunction can be modeled using in vitro cell culture systems relevant to retinal disease. In one such system, retinal pigment epithelium (RPE) cells are cultured to post-confluence to establish a differentiated cell monolayer and are then assayed for mitochondrial dysfunction and effect of drugs for treatment of mitochondrial dysfunction (FIG. 5). In this model, mitochondrial dysfunction is induced by two exposures to nonlethal doses of hydroquinone (HQ) at day −3 and day 0. Hydroquinone (HQ), a well-known environmental toxicant ubiquitously present in Western lifestyle, is a biochemical inducer of mitochondrial dysfunction. […] Cells are then treated with a drug of interest (mitochondrial targeted peptide drug or a prodrug thereof) or control (phosphate-buffered saline (PBS) solution and assayed for effects on mitochondrial dysfunction, as measured by microscopy of flavoprotein autofluorescence (a measure of mitochondrial electron transport chain complex II decompensation) (FIG. 6).

Albumin = Albumin (Homo sapiens, UniProt P02768); assay: Complexation of EY005-stearyl with complexation agent in methyl laurate, HPLC of pulled-down particulates and medium; format: binding; settings: 1 hour
Chain of Albumin (P02768 25-609, species assumed): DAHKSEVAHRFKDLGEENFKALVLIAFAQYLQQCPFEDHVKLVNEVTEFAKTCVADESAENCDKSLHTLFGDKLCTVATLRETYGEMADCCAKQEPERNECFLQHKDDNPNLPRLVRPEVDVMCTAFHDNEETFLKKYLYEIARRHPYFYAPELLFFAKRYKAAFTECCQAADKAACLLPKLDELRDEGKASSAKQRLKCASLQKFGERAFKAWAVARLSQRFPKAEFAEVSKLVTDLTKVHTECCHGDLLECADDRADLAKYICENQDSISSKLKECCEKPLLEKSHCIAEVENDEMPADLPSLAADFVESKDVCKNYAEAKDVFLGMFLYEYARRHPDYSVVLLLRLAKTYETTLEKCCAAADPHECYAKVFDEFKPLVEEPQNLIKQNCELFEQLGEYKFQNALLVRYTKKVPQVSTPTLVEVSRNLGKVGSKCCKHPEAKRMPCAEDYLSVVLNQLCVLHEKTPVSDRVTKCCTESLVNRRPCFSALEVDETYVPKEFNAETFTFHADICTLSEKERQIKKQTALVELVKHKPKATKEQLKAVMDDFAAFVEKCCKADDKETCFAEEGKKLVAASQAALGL
Experimental: As described herein, formation of drug-complex particulates in which the complexation agent has high avidity for the drug can be quantified and verified experimentally. For example, the MTT-prodrug EY005-stearyl was admixed with known quantities of selected individual complexation agents. The EY005-stearyl-complexation agent mixture was then added to an appropriate dispersal medium (in this case, methyl laurate), and centrifuged to “pull down” or separate EY005-stearyl bound to complexation agent from unbound prodrug present in the dispersal medium. HPLC analysis of pulled down particulates and dispersal medium from EY005-stearyl content determined the fraction of MTT-prodrug that is bound to the complexation agent and calculation of the Kd value, the unbound to bound coefficient, for the MTT-prodrug/complexation agent pair. […]
As described herein, formation of drug-complex particulates in which the complexation agent has high avidity for the drug can be quantified and verified experimentally. For example, the MTT-prodrug EY005-stearyl was admixed with known quantities of selected individual complexation agents. […]
Table 2 illustrates an example of a EY005-stearyl prodrug solubilized in methyl laurate in which various complexation agents were added, mixed, and incubated for 1 hour. The quantity of EY005-stearyl prodrug complexed with each complexation agent was determined by HPLC. […]

[3] = Hydrophobicity and aqueous solubility; format: physicochemical
[4] = Release assay of two formulations of EY005 prodrugs in the extended release system; format: physicochemical
Source text: FIG. 36 illustrates data from a release assay of two representative formulations of EY005 prodrugs in the extended-release drug delivery system, with different durations of release.
For example, FIG. 36 illustrates release kinetics for examples of two distinct formulations of EY005 prodrugs in the complexation-based XRDDS, each with different conjugation moieties, as described herein: EY005-octadecyl (formulation 1) and EY005-8-mer peptide (formulation 2).

[5] = Complexation of EY005-stearyl with complexation agent in methyl laurate, HPLC of pulled-down particulates and medium; format: physicochemical; settings: 1 hour
Experimental: As described herein, formation of drug-complex particulates in which the complexation agent has high avidity for the drug can be quantified and verified experimentally. For example, the MTT-prodrug EY005-stearyl was admixed with known quantities of selected individual complexation agents. The EY005-stearyl-complexation agent mixture was then added to an appropriate dispersal medium (in this case, methyl laurate), and centrifuged to “pull down” or separate EY005-stearyl bound to complexation agent from unbound prodrug present in the dispersal medium. HPLC analysis of pulled down particulates and dispersal medium from EY005-stearyl content determined the fraction of MTT-prodrug that is bound to the complexation agent and calculation of the Kd value, the unbound to bound coefficient, for the MTT-prodrug/complexation agent pair. Using this type of assay, Kd values can be generated to identify the unbound to bound drug ratio for specific MTT-prodrug/complexation agent pairs in a selected dispersal medium (see, e.g., Table 2, below).
As described herein, formation of drug-complex particulates in which the complexation agent has high avidity for the drug can be quantified and verified experimentally. For example, the MTT-prodrug EY005-stearyl was admixed with known quantities of selected individual complexation agents. […] HPLC analysis of pulled down particulates and dispersal medium from EY005-stearyl content determined the fraction of MTT-prodrug that is bound to the complexation agent (binding capacity) and calculation of the Kd value, the unbound to bound coefficient, for the MTT-prodrug/complexation agent pair. […]
Table 2 illustrates an example of a EY005-stearyl prodrug solubilized in methyl laurate in which various complexation agents were added, mixed, and incubated for 1 hour. The quantity of EY005-stearyl prodrug complexed with each complexation agent was determined by HPLC. Kd values were calculated as [unbound]/[bound] fraction prodrug under each condition. Binding capacity was calculated as the μg EY005-stearyl complexed per mg complexation agent.

carboxyesterase = assay: In vitro cleavage of the prodrug ester bond by carboxyesterase (HPLC); format: in vitro ADME; settings: 37° C. in vitro, carboxyesterase 0.1 μg/mL
Experimental: One example of an EY005-prodrug includes EY005-stearyl (FIG. 16A), wherein EY005 is linked via ester bond to stearyl alcohol, one member from the group of long-chain saturated fatty alcohols. On cleavage of the ester bond, the prodrug EY005-stearyl releases the EY005 MTT. […] Upon addition of EY005-stearyl prodrug to phosphate-buffered saline solution at 37° C. without esterase, the ester bond of the EY005-stearyl prodrug cleaves more slowly (˜36 hours) by hydrolysis (FIGS. 17A and 17C).
EY005-stearyl was incubated at 37° C. in vitro with carboxyesterase (0.1 μg/mL), to simulate the ocular physiologic environment and the type of esterase that is readily abundant within the vitreous. […] Upon addition of EY005-stearyl prodrug to phosphate-buffered saline solution at 37° C. without esterase, the ester bond of the EY005-stearyl prodrug cleaves more slowly by hydrolysis (FIG. 17C).
FIG. 18 illustrates theoretical data from an in vitro esterase assay showing rapid ester cleavage of two different EY005 prodrugs upon exposure to the esterase.
One specific example of EY005-prodrug includes EY005-stearyl (depicted in FIG. 16A), wherein EY005 is linked via ester bond to stearyl alcohol, one member from the group of long-chain saturated fatty alcohols. On cleavage of the ester bond, the prodrug EY005-stearyl releases the EY005 MTT. […]

[6] = tested on: retinal pigment epithelium (RPE) cells; assay: HQ-induced mitochondrial dysfunction in RPE cells (flavoprotein autofluorescence); format: cell-based; settings: HQ-exposed RPE cells, versus elamipretide or native EY005
Experimental: as §1, §2

patients with dry AMD [7] = settings: subcutaneous, once daily; limited by local injection site reactions; cited from earlier work
patients with dry AMD [8] = assay: ReCLAIM clinical trial in patients with dry AMD; format: in vivo, human; settings: subcutaneous daily (40 mg)
Experimental: FIG. 3 illustrates summary results of the ReCLAIM study, a phase 1/2 clinical trial of systemically administered (40 mg subcutaneous daily) elamipretide in two cohorts of patients with dry AMD: 1) noncentral geographic atrophy (GA) and 2) high-risk drusen.

[9] = Ocular tissue levels of elamipretide in rabbits after subcutaneous or intravitreal administration; format: in vivo, rabbit
Experimental: For example, maximal systemic dosing of elamipretide is 40 mg daily delivered by subcutaneous route of administration, or approximately […]. […] Meanwhile, peak retina levels following intravitreal injection of 15 μg elamipretide is ˜15 μM. Thus, retinal bioavailability of mitochondrial-targeted peptides following systemic administration of a maximally tolerated dose is suboptimal as compared to intravitreal administration. […] The drug clears from the eye in just a few days, and once a week intravitreal injection in humans is not practical or feasible for treatment of disease in clinical practice. Thus, an extended release drug delivery system is essential to achieve sustained, high levels of drug within the vitreous, retina, and RPE.
Systemic delivery of mitochondrial targeted tetrapeptides by SQ injection have suboptimal efficacy in human patients due to insufficient retinal bioavailability. Sufficient levels of the mitochondrial-targeted tetrapeptides cannot be achieved at the target tissue site (i.e., retina). For example, in humans, maximal dosing is 40 mg SQ (˜0.3-0.9 mg/kg), a dose that is limited by SQ injection site toxicity (FIG. 3). In mice, effective dosing required 3 mg/kg, which is 3-10 fold greater than the mass-adjusted dose in humans. Peak plasma levels are also limited by the drug's rapid blood clearance, and the blood-eye barrier may also impede retinal penetration. […] Thus, higher retinal and choroidal drug levels with continuous drug exposure are desirable.

[10] = tested on: sub-RPE deposits and visual function; assay: APOE4 + high fat diet (HFD) mouse model of dry AMD; format: in vivo; settings: 3 mg/kg subcutaneous
Experimental: For example, FIG. 2A illustrates the reversal of pre-existing RPE mitochondrial dysfunction and sub-RPE deposits in an ApoE4 mouse model by high-dose elamipretide administered systemically by subcutaneous (SQ) administration (3 mg/kg […]). Aged ApoE4 mice fed a high-fat diet (HFD) develop sub-RPE deposits that reflect the pathobiology of subRPE drusen in patients with dry AMD. ApoE4 mice were treated with elamipretide (n=5; 3 mg/kg SQ daily) or vehicle (n=5) for 4 weeks, continuing HFD from prior 3 mos. […] These untreated mice had thick, severe deposits.

[11] = tested on: retinal pigment epithelium (RPE) cells; settings: preclinical in vitro models of dry AMD; cited from earlier work
[12] = human, SQ; cited from earlier work

CCCCCCCCCCCCCCCCCCOC(=O)[C@H](Cc1ccccc1)NC(=O)[C@H](CCCCN)NC(=O)[C@H](Cc1c(C)cc(O)cc1C)NC(=O)[C@H](N)CCCNC(=N)N [EY005-stearyl, H-d-Arg-DMT-Lys-Phe(-O)-octadecyl] (H-[dR][Dmt]KF-X1)
Release rate of EY005 ([1]; magnesium stearate and albumin together): intermediate between that of formulations using either complexation agent alone | Release of EY005 into media ([1]; no complexation agent): rapid release | Release of EY005 into media ([1]; silica microbeads): rapid release | Reversal of actin cytoskeleton disorganization [2]: normalized actin cytoskeleton dysfunction | μg EY005-stearyl complexed per mg complexation agent (Albumin): 4.5 μg per mg | Hydrophobicity [3]: hydrophobic | Release kinetics profile ([4]; FIG. 36): longer initial early burst | Durability of release ([4]; two-phase kinetics): 120 days | μg EY005-stearyl complexed per mg complexation agent ([5]; Cyclodextrin gamma): 2.3 μg per mg | μg EY005-stearyl complexed per mg complexation agent ([5]; Lecithin): 9.5 μg per mg | μg EY005-stearyl complexed per mg complexation agent ([5]; Silica microbeads): 0.2 μg per mg | cleavage of the prodrug ester bond, releasing EY005 (carboxyesterase): rapid cleavage of the prodrug ester bond | Potency for reversal of mitochondrial dysfunction relative to comparator [6]: efficacy equivalent to treatment with EY005 native peptide

Cc1cc(O)cc(C)c1C[C@H](NC(=O)[C@H](N)CCCNC(=N)N)C(=O)N[C@@H](CCCCN)C(=O)N[C@@H](Cc1ccccc1)C(N)=O [elamipretide, H-d-Arg-Dmt-Lys-Phe-NH2] (H-[dR][Dmt]KF-NH2)
maximally tolerated dose in humans (patients with dry AMD [7]): 40 mg | Low-luminance visual acuity / visual function (patients with dry AMD [8]): general mean trend toward improvement in multiple metrics of visual function | peak retina levels following intravitreal injection ([9]; intravitreal injection of 15 μg): ~15 µM | choroid levels after 4 hours ([9]; rabbit, subcutaneous 1 mg/kg): undetectable | drug in the retina after subcutaneous administration ([9]; rabbit, subcutaneous 1 mg/kg): no drug is detected in the retina | peak choroid levels at 1 hour ([9]; rabbit, subcutaneous 1 mg/kg): ~50 nM | visual function (ERG B-wave amplitudes) [10]: increased B-wave amplitudes; also recorded: partially improved visual function | Aqueous solubility ([3]; native form): high aqueous solubility | Reversal of mitochondrial dysfunction in RPE cell culture [11]: potent for reversal of mitochondrial dysfunction | Dose-limiting toxicity [12]: local injection site reactions
